This passage reports melting point results from a melting point compilation (Tetko et al.; mined from patent text by program, amines drawn as free bases though some values may be those of a salt).

The structures appear in SMILES notation.

What is called melting point is the temperature of the solid-liquid transition. `CCOC(=O)Cn1c(=S)c2cc(C)ccc2n(Cc2ccc(Cl)c(Cl)c2)c1=O` showed a melting point of 176 to 177 °C.

`Cc1cccc(-c2nc3cccnn3c2-c2ccnc(NC(=O)N3CCCCC3)c2)c1` gave a melting point of 173 to 175 °C.

The molecule `NC(CCN(CCC(N)=NO)CCN(CCC(N)=NO)CCC(N)=NO)=NO` showed a melting point of 191 to 192 °C.

For `N#CCN1C(=O)N(c2ccc(C#N)c(C(F)(F)F)c2)C(=O)C12CCOCC2`, the melting point was in the range of 210 to 211 °C.

Take `O=C(O)CCc1cnoc1-c1ccc(F)c(Br)c1`: the melting point lay within 136 to 137 °C.

The molecule `c1cc(P(CCP(c2ccncc2)c2ccncc2)c2ccncc2)ccn1` returned a melting point of 183 to 185 °C.

Regarding `CCn1cc(C(=O)O)c(=O)c2cc(F)c(N3CCN(S(=O)(=O)c4ccc(NC(C)=O)cc4)CC3)c(F)c21`, the melting point fell in the range of 276 to 277 °C.

The molecule `O=C1c2ccccc2-c2ccc(F)cc21` registered a melting point of 113 to 115 °C.

Molecule `CNn1c(C)nn(C(=O)NC(C)(C)C)c1=O` displayed a melting point of 150 °C.

Molecule `CCOC(=O)c1cn(CC)c2cc(-c3cc(C)nc(C)c3)c(F)cc2c1=O` showed a melting point of 221 to 224 °C.

As to `Cc1ccc(-c2ccc(CO)cc2)cc1`, the melting point is 128 to 131 °C.

Molecule `Cc1nccn1CC(COc1cccc(Cl)c1)Sc1c(Cl)cccc1Cl` (stereo not drawn) yielded a melting point of 162 to 163 °C.

In turn, `O=C(NC(=O)c1c(F)cccc1F)Nc1ccc2c(c1)SC(c1ccc(Cl)cc1Cl)O2` (stereo not drawn) had a melting point of 206 to 208 °C.

`CCCCCCCCCCCCCCCCCC(CCC(=O)O)(CCC(=O)O)[N+](=O)[O-]`: the melting point stood at 102 °C.

`CCOc1ccc(CCN(C(=O)O)C(=O)[C@H](C)NC(C)=O)cc1OCC`: the melting point was in the range of 84 to 86 °C.

As to `CC(C)C(NC(=O)OCc1cccnc1)C(=O)NC(Cc1ccccc1)C(O)C(O)C(Cc1ccccc1)NC(=O)C(NC(=O)OCc1cccnc1)C(C)C` (stereo not drawn), the melting point was 202 to 207 °C.

In the case of `O=C1CCC(CO)N1OCc1ccccc1` (stereo not drawn), the melting point lay in the range of 121 to 123 °C.

The molecule `COc1ccc(CNC(=O)c2cn3c(=O)n(Cc4ccc(Cl)c(Cl)c4)c(=O)cc3s2)cc1` had a melting point of 206 to 207 °C.

For the molecule `N#Cc1c(N)cccc1N1CCCC1`, the melting point was 112 to 114 °C.

For `Nc1nc2c(s1)CCN(CC=Cc1cccc(OCc3ccccn3)c1)CC2`, the melting point was in the range of 35 to 40 °C.

As to `COc1ccc(C2Nc3cc(OC)c(OC)cc3C(C)=[N+]2[O-])cc1` (stereo not drawn), the melting point fell in the range of 161 to 163 °C.

As for `O=C(CSc1ccncc1)C12CC3CC(CC(C3)C1)C2`, the melting point was 114 to 115 °C.

`CC(C)C=C1CCC2(C1)C(=O)C=C(OC(C)C)CC2C` (stereo not drawn) came in with a melting point of 88 to 91 °C.

Take `CCc1c(NC(=O)c2ccc(Br)cc2)ccc2cc(CO)cnc12`: the melting point lay within 202 to 204 °C.

In turn, `O=c1c2c(Cc3cccc([N+](=O)[O-])c3)n[nH]c2c2cccnc2n1-c1ccccc1` had a melting point of more than 320 °C.

`COC(=O)c1cccnc1C(=O)c1ccccc1` registered a melting point of 74 °C.

With `COC(=O)Cc1ccc(-c2nc3ccccc3o2)cc1`, the melting point was 109 to 112 °C.

Take `CCN(c1cccc2cc(C(N)=S)[nH]c12)S(=O)(=O)c1cccs1`: the melting point is 163 °C.

The molecule `CC(C)(C)OC(=O)Nc1ccc(-c2ccccc2)cc1[N+](=O)[O-]` came in with a melting point of 119 to 121 °C.

`OCC1(CO)CN(Cc2ccccc2)C1` gave a melting point of 86 to 87 °C.

With `CCOC(=O)N1Cc2ccccc2C(Oc2ccc([N+](=O)[O-])cc2)C1` (stereo not drawn), the melting point lay within 118 to 119 °C.

Take `CCS(=O)(=O)N(C)C1CC(C)(C)Oc2ccc(O)cc21` (stereo not drawn): the melting point was in the range of 160 to 162 °C.

With `CC1=NC=C(c2ccc3c(c2)NC(=O)CO3)C(c2ccccc2)S1` (stereo not drawn), the melting point is 187 to 189 °C.

The molecule `Cc1c(C(=O)Nc2ccc(-c3ccc(S(=O)(=O)N(C)C(C(=O)O)C(C)C)cc3)cc2)oc2cccc(C(O)CO)c12` (stereo not drawn) showed a melting point of 222 to 225 °C.

The molecule `O=C(O)c1c[nH]c2c1C(=O)CCC2` gave a melting point of 269 to 270 °C.

With `CN1CCN(c2ccnc3c(NC(=O)c4c(Cl)cccc4Cl)ccc(Cl)c23)C1=O`, the melting point lay within 259 to 263 °C.

`CC(CSC(=O)c1ccco1)C(=O)N1CCCC1C(=O)O` (mixture of isomers): the melting point was 132 to 140 °C.

In the case of `CC(NC(=O)Oc1cccc2c1C1(C)CCN(C)C1N2C)c1ccccc1` (stereo not drawn), the melting point was 151 to 155 °C.

The molecule `O=c1[nH]c2cc(C(F)(F)F)ccc2n(CCc2ncc[nH]2)c1=O` yielded a melting point of more than 250 °C.

The molecule `CCCCc1c(C(=O)OCC)cc(O)c2ccccc12` had a melting point of 117 to 120 °C.

On to `CN(C)C1CC2c3ccccc3Cc3ccccc3N2C1` (stereo not drawn), for which the melting point was in the range of 124 to 128 °C.

On to `CC(=O)n1nc(S(=O)(=O)Cl)nc1N`, for which the melting point is 166 to 168 °C.

As for `COc1ccc(Cl)cc1NC(=O)[C@H]1[C@H](c2ccc(Cl)cc2)C1(C)C` (relative stereo), the melting point was in the range of 162 to 164 °C.

In the case of `Cn1c(=O)cc(CCc2cccc(Cl)c2)c2cc(C(N)(c3ccc(Cl)cc3)c3cccnc3)ccc21` (stereo not drawn), the melting point amounted to 90 °C.

`CCN(CC)C(=O)Oc1cc(CN/C=C2\C(=O)NC(=O)c3ccc(I)cc32)ccc1OC`: the melting point was 128 to 130 °C.

As to `CO/N=C(\C)c1cccc(Nc2c3ccccc3nc3occc23)c1`, the melting point lay in the range of 137 to 138 °C.

The molecule `CC(C)c1cccc(S(=O)(=O)n2c(CCCC(=O)O)cc3cc(Cl)ccc32)c1` gave a melting point of 128 °C.

Regarding `CC1(c2cc(Cl)nnc2Cl)CC1(Cl)Cl` (stereo not drawn), the melting point is 78 to 79 °C.

`CCN1C(=O)NC(c2ccc3ccccc3c2)c2cc3c(cc21)OCO3` (stereo not drawn) returned a melting point of 193 to 195 °C.

On to `Fc1ccc(C=Nc2nc3ccc(Cl)cc3s2)cc1`, for which the melting point fell in the range of 168 to 169 °C.

Regarding `CC(C)(C)CC(=O)c1c(-c2ccc3c(Br)c(OCC(=O)O)ccc3c2)oc2ccccc12`, the melting point is 151 to 153 °C.

`CC(=O)c1cn(S(=O)(=O)c2ccccc2)c2nccc(OC3CCCCC3)c12` yielded a melting point of 107 to 109 °C.

As to `ClC(=NNc1ccc(Cl)cc1)c1ccccc1`, the melting point was 107 to 108 °C.

`CC(=O)CCc1cc(-c2ccncc2)sc1-c1ccncc1` returned a melting point of 162 to 163 °C.

Consider `COc1ccc2cccc(C(CO)CNC(C)=O)c2c1` (stereo not drawn), for which the melting point was 136 to 138 °C.

`COc1cc(Nc2c(C#N)cnc3cc(OCCN4CCN(C)CC4)c(OC)cc23)c(Cl)cc1Cl`: the melting point lay in the range of 165 to 167 °C.

Turning to `O=C1CNc2ncc(I)cc2N1Cc1ccc(C(F)(F)F)o1`, the melting point was in the range of 189 to 191 °C.

For `C#CCN1C(=O)N(c2ccc(C#N)c(C(F)(F)F)c2)C(=O)C1(CF)CF`, the melting point is 126 to 127 °C.

`CC(=O)CCCCN1CCN(c2ncccn2)CC1` had a melting point of 44 to 47 °C.

As to `O=C(O)C1=Cc2cc(Cl)c(Oc3ccc(Cl)cc3Cl)cc2OC1C(F)(F)F` (stereo not drawn), the melting point lay in the range of 233 to 234 °C.

`CN(O)C(=O)NCCc1cccc(Oc2ccccc2)c1`: the melting point is 84.5 to 86 °C.

On to `CC(C)C(=O)NC1=NC(=CCC(=O)Nc2ccc(Cl)cc2)CS1`, for which the melting point lay in the range of 112 to 114 °C.

The molecule `C=Cc1cc(NC(=O)N2CCN(c3cc(C)cc(C)c3)CC2)c(OC)nc1C` registered a melting point of 131 to 132 °C.

In turn, `Ic1cc(I)cc(Cc2cc(I)cc(I)c2)c1` showed a melting point of 104 to 107 °C.

In turn, `COc1cc(C2C3=C(COC3=O)Nc3ccc4cn[nH]c4c32)ccc1F` (stereo not drawn) yielded a melting point of 307 to 309 °C.

In the case of `Cc1nc2[nH]c(=O)[nH]c2cc1-c1ccc([N+](=O)[O-])cc1`, the melting point was more than 300 °C.

Regarding `CN(C)C1N(C(=O)c2ccccc2)N=C2c3ccccc3SN21` (stereo not drawn), the melting point lay in the range of 155 to 156 °C.

In the case of `CNC(=O)C(C)(C)OCc1cc(-c2ccc(Cl)cc2)no1`, the melting point is 93 to 94 °C.

In turn, `NS(=O)(=O)c1ccc(CO)s1` displayed a melting point of 70 to 71 °C.

Molecule `N#CC(C(=O)c1ccc(Cl)cc1)=C1CCCN1C(=O)c1ccc(Cl)cc1` displayed a melting point of 218 °C.

Consider `CC(=O)Oc1ccc(C2=NNC(=O)CC2C)cc1` (stereo not drawn), for which the melting point fell in the range of 152 to 153 °C.

With `Cc1nn(CC(F)(F)COC(=O)CN(C)C)c(-c2ccc(F)cc2)c1-c1ccc2c(c1)NC(=O)CO2`, the melting point fell in the range of 153 to 155 °C.

Molecule `CCCOc1ccc(SCCSc2ccc(OCCC)cc2)cc1` showed a melting point of 111 to 112 °C.

For the molecule `CCOC(=O)CC(=O)Nc1c(F)cccc1[N+](=O)[O-]`, the melting point fell in the range of 99 to 102 °C.

With `CC(C)(C)OC(=O)NCCCc1ccc(OCCC2Oc3ccccc3N(Cc3cccc(Cl)c3)C2=O)cc1` (stereo not drawn), the melting point fell in the range of 75 to 81 °C.

`COc1ccc(C2=C(c3ccc(S(N)(=O)=O)cc3)CCC2)cc1F` showed a melting point of 170 to 171 °C.

Molecule `CC(C)c1nn(-c2ccc(C(F)(F)F)cn2)cc1CCCCOc1cc(CCC(=O)O)n(-c2ccccc2)n1` showed a melting point of 137 to 138 °C.

Molecule `CCOC(=O)[C@H]1O[C@@H]1C(=O)N[C@H](COCC(C)C)C(C)C` gave a melting point of 40.5 to 45 °C.

In turn, `CC(=NOCCO)c1ccc(-c2ccccc2)cc1` had a melting point of 128 to 130 °C.

Molecule `O=C1N(C2CCCCC2)CC(CO)C1(c1ccccc1)c1ccccc1` (stereo not drawn) came in with a melting point of 148 to 150 °C.

As for `CN(c1ccc(Cl)cc1)S(=O)(=O)c1cn(S(=O)(=O)N(C)C)cn1`, the melting point came out at 132 °C.

Take `CNc1ccc(C(=O)OC)c(F)n1`: the melting point lay in the range of 156 to 159 °C.

In turn, `CCCCC1=NC2(CCCC2)C(=O)N1Cc1ccc(-c2ccccc2S(=O)(=O)Nc2onc(C)c2C)c(OCC(C)C)c1` returned a melting point of 58 to 61 °C.

In turn, `CN1CCN(c2ncc(-c3ccccc3)c(C(=O)N(C)Cc3cc(C(F)(F)F)cc(C(F)(F)F)c3)n2)CC1` registered a melting point of 162 to 163 °C.

Consider `CC(C#Cc1ccc(Oc2ccc(C(C)(C)C)cc2)o1)N(O)C(N)=O` (stereo not drawn), for which the melting point fell in the range of 144 to 145 °C.

Molecule `CN(C1CCN(CCCC(F)(F)F)CC1)S(=O)(=O)c1ccc(Nc2nccc(Nc3ccc(F)cc3)n2)cc1` gave a melting point of 166 to 167 °C.

On to `CCCCCCCCc1cccc(CCC(N)(CO)CO)c1`, for which the melting point was in the range of 89 to 92 °C.

`Cc1cc(N(C)CC(=O)N2CCN(Cc3ccc4c(c3)OCO4)CC2)ccc1Oc1ccc([N+](=O)[O-])cn1` displayed a melting point of 142 to 143 °C.
